Reference: patent US20260042816A1, “TYROSINE KINASE INHIBITOR AND ACTIVIN TYPE 2 RECEPTOR ANTAGONIST COMBINATION THERAPY FOR TREATING PULMONARY ARTERIAL HYPERTENSION (PAH)” (GB002, INC., priority 2022, published 2026)

Legend:
[1] = tested on: severe PAH in two animal models; conditions: cited from earlier work
[2] = tested on: SuHx-mediated (SU5416 plus hypoxia) pulmonary hypertension; assay: SuHx (SU5416 plus hypoxia) rat model of PAH; type: in vivo, male Sprague Dawley rats; conditions: for decrease in Fulton's Index (RV hypertrophy measurement) / decrease in PVR Index / decrease in RVSP / decrease in mPAP: normalized to vehicle (1) and normal controls (0), day 49, after 4 weeks of treatment, Seralutinib 15 mg/kg inhalation BID and/or Sotatercept (as RAP-011) 5 mg/kg SC 2x/week; for lung histology (hematoxylin and eosin), pulmonary vessels: representative images, FIG. 2
Protocol: PAH was induced in animal by a administering a single injection SU5416 (20 mg/kg) on day 0, followed by exposure of animals to hypoxia (10% oxygen) for 21 days. SuHx rats were divided in four groups and treated with i) Control: Seralutinib vehicle inhalation+Sotatercept vehicle injection (grey bar) or ii) Seralutinib 15 mg/kg, by inhalation, twice daily+Sotatercept vehicle, subcutaneous injection, twice a week (bar with horizontal pattern) or iii) Sotatercept 5 mg/kg subcutaneous injection, twice a week+Seralutinib vehicle, by inhalation, twice daily (bar with vertical line pattern) or iv) Seralutinib 15 mg/kg, by inhalation, twice daily+Sotatercept 5 mg/kg subcutaneous injection, twice a week (white bar); normoxia animals were used a healthy controls. Bar graph showing individual normalized data point for (A) Right ventricular systolic pressure (RVSP) (FIG. 1A), (B) mean pulmonary artery pressure (mPAP) (FIG. 1B), (C) right ventricular hypertrophy measured by fulton's index (FIG. 1C), and PVR index (FIG. 1D).
SuHx-mediated (SU5416 plus hypoxia) pulmonary hypertension was induced in male Sprague Dawley rats (see “Inhibition of the VEGF receptor 2 combined with chronic hypoxia causes cell death-dependent pulmonary endothelial cell proliferation and severe pulmonary hypertension”, Taraseviciene-Stewart et. al., FASEB J, 2001, 15, 427-438 and “TORREY, a Phase 2 study to evaluate the efficacy and safety of inhaled seralutinib for the treatment of pulmonary arterial hypertension”, Frantz R P, et. al., Pulmonary Circulation 2021; 11(4), 1-7). Semaxanib (SU5416) was administered to rats weighing 200-250 g as a single subcutaneous injection (20 mg/kg). Rats were housed for 3 weeks in 10% oxygen and subsequently re-exposed to normoxia during 4-week treatment period.
Rats underwent treatment for four weeks as described above, with treatment starting on day 22, after disease induction. After 4 weeks of treatment, the following parameters were evaluated: right ventricular systolic pressure (RVSP); Fulton index (weight ratio of right ventricle to the left ventricle and septum); and mean pulmonary arterial pressure (mPAP).
Animals from (Group 2-5) received a single subcutaneous injection of SU5416 (20 mg/kg) on Day 0 and exposed to hypoxia (10% O2) for 21 days followed by 4 weeks of normoxia. Group 1 animals (healthy group) remained in cages exposed to ambient oxygen (normoxic) levels for 49 days. Food and water were given ad libitum.
Treatment with inhaled seralutinib or vehicle, RAP-011 or mIgG2A was as described in Table 2.
Briefly, treatment with the aerosolized Seralutinib or vehicle was administrated for 45 minutes BID for 4 weeks starting day 22 (as outlined in Table 1) at an estimated dose to 15 mg/kg/dose using a Vilnius Aerosol Generator connected to an inhalation tower. The powder concentration was continuously monitored by portable aerosol monitor. Mercer-style cascade impactor was used to perform aerodynamic particle size distribution measurements. RAP-011 or mIgG was administered at 5 mg/kg dose via SC injection twice a week for 4 weeks starting day 22 as described in Table 2.
An echocardiogram monitoring of the progression of the disease was carried out on Day 21 (before treatment) and on surgery day (Day 49) for all groups. The results of the echocardiogram, from Day 21, was used to randomize the animals to ensure that only animals with severe enough disease are selected and that there is a similar disease stage across all groups.
On day 49, after 4 weeks of treatment, end of study procedures was performed: mean pulmonary arterial pressure (mPAP) and right ventricle systolic pressure (RVSP) were measured via an intra-ventricular fluid-filled catheter from AD instruments. Mean pulmonary arterial blood pressure values by using the formula mPAP=Diastolic Pressure+(Systolic Pressure−Diastolic Pressure)/3.

[3] = tested on: PAH patients; conditions: patients treated with standard-of-care therapies; cited from earlier work

COc1ccc(-c2cncc(N[C@@H](C)c3cccc(NC(=O)c4cncc(C)c4)c3)n2)cc1OC [Seralutinib, N-{3-[(1S)-1-{[6-(3,4-dimethoxyphenyl)pyrazin-2-yl]amino}ethyl]phenyl}-5-methylpyridine-3-carboxamide]
efficacy compared to imatinib ([1]; preclinical study): greater efficacy compared to imatinib | efficacy of inhaled seralutinib in animal models of severe PAH ([1]; two animal models, improved hemodynamics, reduced NT-proBNP, reverse remodeling): effective treatment of severe PAH | decrease in Fulton's Index (RV hypertrophy measurement) [2]: 9% | decrease in PVR Index [2]: 26% | decrease in RVSP [2]: 13% | decrease in mPAP [2]: 23% | lung histology (hematoxylin and eosin), pulmonary vessels [2]: non-occluded pulmonary vessels similar to the healthy group

Sotatercept: soluble fusion protein composed of the extracellular domain of the activin receptor type IIA (ActR IIA) linked to the Fc portion of human IgG1 [reference compound]
decrease in Fulton's Index (RV hypertrophy measurement) [2]: 15% | decrease in PVR Index [2]: 25% | decrease in RVSP [2]: 31% | decrease in mPAP [2]: 28% | lung histology (hematoxylin and eosin), pulmonary vessels [2]: non-occluded pulmonary vessels similar to the healthy group | clinical effect in PAH patients [3]: beneficial effects
